Source: publication PMC10669625 (Biomedicines, 2023)

Experiments:
[1] = Breath limonene by selected ion flow tube mass spectrometry (SIFT-MS), one 15 s exhalation; type: in vivo; conditions: unpublished data
[2] = parameters: method as in PMID 20661827; conditions: cited from earlier work
[3] = parameters: method as in PMID 30845345; conditions: mice; oral and inhalation intake; within 30 min post administration; cited from earlier work
[4] = parameters: method as in PMID 9682146, PMID 9654110; conditions: after oral administration; cited from earlier work
[5] = Limonene exhalation kinetics in breath (Breath Biopsy, GC-MS) after ingestion of 100 mg limonene; conditions: for Cmax (ng) median [IQR]: 100 mg limonene oral, overnight fast

C=C(C)[C@H]1CC=C(C)CC1 [limonene]
Breath levels of limonene before administration [1]: a few | Increase of breath limonene after administration vs before [1]: > 1000 fold | Breath levels of limonene after administration ([1]; up to): 5–10 PPM | Average increase in adipose tissue ([2]; after 4 weeks of continuous exposure): 44 fold | Accumulation in adipose tissue ([2]; after a single dose): no accumulation | Organ distribution [3]: majority of limonene found in the liver | Distribution volume [4]: greater than total body water | Limonene spike in breath after administration compared to baseline ([5]; all subjects, 100 mg limonene): > 100 fold | Slope (rate of elimination) ([5]; breath, semi-logarithmic scale, control group): −0.027 [−0.031–−0.023] | AUC (0–90 min) median [IQR] ([5]; breath, cirrhosis group): 121,437 [57,921–202,733] ng × min/400 mL | Cmax (ng) median [IQR] ([5]; breath, cirrhosis group): 2077 [1051–4260] ng | AUC (0–90 min) median [IQR] ([5]; breath, control group): 27,107 [17,605–34,946] ng × min/400 mL | Cmax (ng) median [IQR] ([5]; breath, control group): 595 [361–903] ng | Cmax ([5]; case report subject DYL10297 (enrolled as control, suspected mild chronic liver disease), at 40 min): 2421 ng
